Earlier results on one compound are cited in publication PMC12264960, “siRNA Interaction and Transfection Properties of Polycationic Phosphorus Dendrimers” (Biomacromolecules, 2025).

The test system of series [1] is translation in the prokaryotic system. The arrangement: method as in earlier work. The note with it: ref [4].
Series [2] deals with translation in the eukaryotic system. Details: method as in earlier work. To be noted: ref [4].

Regarding `NC1C(OCOC2C(N)[C@H](O[C@H]3C(N)C[C@H](N)C(O)C3O)OC(CO)[C@@H]2O)[C@H](O)C(CO)O[C@@H]1O[C@@H]1C(N)C[C@@H](N)C(O)C1O` (some centres unmarked) [NB33], the “times weaker inhibitor of translation compared to apramycin” value in series [1] was 22 times. In series [2], the “fold better inhibitor of translation compared to apramycin” value is 10 fold.
